Reference: US20100215741A1, “PHARMACEUTICAL COMPOUNDS” (priority 2009, published 2010)
Like-named read-outs stand apart in the source and are kept apart here.

Key:
CB1 receptors = target: T1, CB1 receptors (Mus musculus, UniProt P47746); assay: radioreceptor binding, displacement of [3H]-CP-55,940, CB1 (brain)
T1 construct: the complete brain (excluding the cerebellum) and the spleen were quickly dissected and kept in ice; from tissue; host or cells: mouse brain (excluding the cerebellum), membrane preparation
T1 sequence (P47746 whole entry): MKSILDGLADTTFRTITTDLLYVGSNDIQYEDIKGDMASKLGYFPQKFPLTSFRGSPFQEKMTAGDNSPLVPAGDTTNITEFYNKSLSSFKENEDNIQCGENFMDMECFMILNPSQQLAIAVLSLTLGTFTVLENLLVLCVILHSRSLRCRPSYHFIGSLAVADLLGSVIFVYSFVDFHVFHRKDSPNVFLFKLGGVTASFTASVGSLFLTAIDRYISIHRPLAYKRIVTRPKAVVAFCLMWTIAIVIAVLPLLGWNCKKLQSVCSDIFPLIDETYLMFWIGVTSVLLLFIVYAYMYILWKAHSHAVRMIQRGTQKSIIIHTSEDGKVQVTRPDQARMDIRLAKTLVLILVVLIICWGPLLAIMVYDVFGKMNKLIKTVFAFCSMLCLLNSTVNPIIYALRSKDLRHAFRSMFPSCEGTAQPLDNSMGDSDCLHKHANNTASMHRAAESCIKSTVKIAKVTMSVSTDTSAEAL
Procedure: (§1) The affinity of the compounds towards the CB1 and CB2 cannabinoidergic receptors was evaluated in vitro by radioreceptor binding studies using the following method.
(§2) The technique of the receptor binding allows to establish if, and with which affinity and specificity, a specific compound binds to a particular receptor. To evaluate the affinity of a specific compound to a particular receptor it is necessary to challenge in a particular tissue preparation wherein those specific receptors are present the compound to be tested with a radioactive labelled compound whose affinity for the same receptors is known. […] The amount of radioactivity present in the receptor-compound complex allows furthermore to stimate with great accuracy the amount of compound bound to the receptor. By said method it is therefore possible to stablish quickly the affinity of a new compound towards a specific receptor and thus to determine its pharmacological activity. With the same experimental protocol it is possible to evaluate the affinity of the compound towards other receptors and thus establish its specificity degree toward said other receptors.
(§3) The food and water were ad libitum.
(§4) The procedure adopted, based on the use of the compound [^3H]-CP-55,940 (New England Nuclear, Boston, Mass., USA), requires the use of the mouse brain as biological tissue for the evaluation of the affinity towards the CB1 receptors and of the mouse spleen for the affinity assay for the CB2 receptors.
(§5) The animals were sacrificed by cervical dislocation and the complete brain (excluding the cerebellum) and the spleen were quickly dissected and kept in ice.
(§6) The tissue was homogenized in 15 volumes (weight/-volume) of TME buffer (50 Mm Tris, 1 mM EDTA and 3 mM MgCl2, pH 7.4) by an Ultra-Turrax and subsequently centrifuged for 10 minutes at 1086×g in a centrifuge refrigerated at 4° C. The recovered supernatant was centrifuged at 45,000×g for 30 minutes at 4° C. by using a Beckman SW41 rotor and the obtained pellet was resuspended in 50 volumes of TME.
(§7) The thus obtained membranes (50-80 μg of proteins) were incubated in the presence of 1 nM of [^3H]-CP55.940 for 1 hour at 30° C. in a final volume of 0.5 ml of TME buffer containing […] (BSA). The non specific binding was measured in the presence of CP55.940 at a 1 μM concentration.
(§8) All the experiments were carried out in polypropylene test tubes pretreated with Sigma-Cote (Sigma Chemical Co. Ltd., Poole, UK) for reducing non specific binding.
(§9) In order to determine the competitive inhibition binding curves, eight different concentrations of each compound were used.
(§10) Incubation was stopped by addition of TME buffer (at 4° C.) containing 5 mg/ml of BSA, and subsequent filtration under vacuum by Whatman GFC filters pretreated with 0.5% of polyethylamine (PEI) and by using a filtering device (Brandell, Gaithersburg, Md., USA). The filters were washed 3 times with 5 ml of Tris HCl buffer (pH 7.4, 4° C.) containing 1 mg/ml of BSA and separately placed in plastic vials containing 4 ml of scintillating liquid (Ultima Gold MV, Packard).
(§11) The radioactivity present in the filters was determined by a scintillator spectrophotometer (Tricarb® 2100, Packard, Meridien, USA).
(§12) Protein determination was carried out by the Bradford method by using the protocol and the reactants supplied by Bio-Rad (Milano, Italy).

CB2 receptors = target: T2, CB2 receptors (Mus musculus, UniProt P47936); assay: radioreceptor binding, displacement of [3H]-CP-55,940, CB2 (spleen)
T2 construct: the complete brain (excluding the cerebellum) and the spleen were quickly dissected and kept in ice; from tissue; host or cells: mouse spleen, membrane preparation
T2 sequence (P47936 whole entry): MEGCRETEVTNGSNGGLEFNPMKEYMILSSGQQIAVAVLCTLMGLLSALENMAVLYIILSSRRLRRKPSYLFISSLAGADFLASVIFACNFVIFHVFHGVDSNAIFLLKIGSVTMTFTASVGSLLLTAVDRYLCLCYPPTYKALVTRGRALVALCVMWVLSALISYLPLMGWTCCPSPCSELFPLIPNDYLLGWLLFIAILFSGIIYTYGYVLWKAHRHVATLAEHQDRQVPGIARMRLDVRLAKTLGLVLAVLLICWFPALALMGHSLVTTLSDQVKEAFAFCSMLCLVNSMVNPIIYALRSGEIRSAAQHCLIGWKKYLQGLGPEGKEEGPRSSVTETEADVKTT
Procedure: as §1, §2, §3, §4, §5, §6, §7, §8, §9, §10, §11, §12

[1] = mouse spleen membranes, 1 nM [3H]-CP55.940, 1 hour at 30° C., read-out: CB2 (spleen) Ki

Molecule Cc1ccc2c(c1)oc1c(C(=O)NN3CCCC3)nn(-c3ccc(Cl)cc3Cl)c12 [Example 3.21, N-pyrrolidinyl-1-(2,4-dichlorophenyl)-6-methyl-1H-benzofuro[3,2-c]pyrazole-3-carboxamide] has a Ki (CB1 receptors) of 2720 ± 652 nM, a Ki (CB2 receptors) of 29.5 ± 8 nM and a melting point of 90 to 92 °C.

Cc1ccc2c(c1)oc1c(C(=O)NC3CC4CCC3(C)C4(C)C)nn(-c3ccc(Cl)cc3Cl)c12 (stereo not shown) [Example 3.27, N-1,7,7-trimethyl-bicyclo[2.2.1]hept-2-yl-1-(2,4-dichlorophenyl)-6-methyl-1H-benzofuro[3,2-c]pyrazole-3-carboxamide] showed a Ki (CB1 receptors) of 469 ± 64 nM, a Ki (CB2 receptors) of 3.5 ± 0.6 nM and a melting point of 78 to 80 °C.

For Cc1ccc2c(c1)oc1c(C(=O)NC3C4(C)CCC(C4)C3(C)C)nn(-c3ccc(Cl)cc3Cl)c12 (stereo not shown) [Example 3.26, N-1,3,3-trimethyl-bicyclo[2.2.1]hept-2-yl-1-(2,4-dichlorophenyl)-6-methyl-1H-benzofuro[3,2-c]pyrazole-3-carboxamide], the Ki (CB1 receptors) was 257 ± 7 nM, the Ki (CB2 receptors) was 2.5 ± 0.3 nM and the melting point was 84 to 86 °C.

CC1(C)C2CCC(CNC(=O)c3nn(-c4ccc(Cl)cc4Cl)c4c3CCCc3cc(Cl)ccc3-4)C1C2 (stereo not shown) [Example 3.4, N-myrtanyl-8-chloro-1-(2′,4′-dichlorophenyl)-1,4,5,6-tetrahydrobenzo[6,7]cyclohepta[1,2-c]pyrazol-3-carboxamide] gave a Ki (CB1 receptors) of 2.6 ± 0.17 nM and a Ki (CB2 receptors; [1]) of 19.6 ± 1.5 nM.

In the case of Cc1ccc2c(c1)oc1c(C(=O)NC3CCCCC3)nn(-c3ccc(Cl)cc3Cl)c12 [Example 3.23, N-cyclohexyl-1-(2,4-dichlorophenyl)-6-methyl-1H-benzofuro[3,2-c]pyrazole-3-carboxamide], the Ki (CB1 receptors) is reported as 1250 ± 129 nM, the Ki (CB2 receptors) is reported as 15.6 ± 4 nM and the melting point is reported as 140 to 142 °C.

Molecule CC1(C)C2CCC(CNC(=O)c3nn(-c4ccc(Cl)cc4Cl)c4c3CCCc3ccc(Cl)cc3-4)C1C2 (stereo not shown) [Example 3.1, N-myrtanyl-9-chloro-1-(2′,4′-dichlorophenyl)-1,4,5,6-tetrahydrobenzo[6,7]cyclohepta[1,2-c]pyrazol-3-carboxamide] has a Ki (CB1 receptors) of 20 ± 5 nM and a Ki (CB2 receptors; [1]) of 23.3 ± 1.6 nM.

For Cc1ccc2c(c1)oc1c(C(N)=O)nn(-c3ccc(Cl)cc3Cl)c12 [1-(2,4-dichlorophenyl)-6-methyl-1H-benzofuro [3,2-c]pyrazole-3-carboxamide], the melting point was 185 to 186 °C.

For Cc1ccc2c(c1)oc1c(C(=O)NN3CCOCC3)nn(-c3ccc(Cl)cc3Cl)c12 [Example 3.22, N-morpholin-4-yl-1-(2,4-dichlorophenyl)-6-methyl-1H-benzofuro[3,2-c]pyrazole-3-carboxamide], the Ki (CB1 receptors) was 4060 ± 64 nM, the Ki (CB2 receptors) was 37.7 ± 6.3 nM and the melting point was 178 to 180 °C.

Cc1ccc2c(c1)oc1c(C(=O)NC3C4CC5CC(C4)CC3C5)nn(-c3ccc(Cl)cc3Cl)c12 (stereo not shown) [Example 3.29, N-adamantan-2-yl-1-(2,4-dichlorophenyl)-6-methyl-1H-benzofuro[3,2-c]pyrazole-3-carboxamide] gave a Ki (CB1 receptors) of 537 ± 132 nM, a Ki (CB2 receptors) of 17.5 ± 0.9 nM and a melting point of 209 to 211 °C.

Work on Cc1ccc2c(c1)Cc1c(C(=O)NCC3CCC4CC3C4(C)C)nn(-c3ccc(Cl)cc3Cl)c1-2 (stereo not shown) [Example 3.15, N-myrtanyl-1-(2′,4′-dichlorophenyl)-6-methyl-1,4-dihydroindeno[1,2-c]pyrazole-3-carboxamide] yielded a Ki (CB1 receptors) of 350 ± 76 nM and a Ki (CB2 receptors; [1]) of 2.3 ± 0.5 nM.

Work on Cc1ccc2c(c1)oc1c(C(=O)N[C@H]3C[C@@H](C)CC[C@@H]3C(C)C)nn(-c3ccc(Cl)cc3Cl)c12 [Example 3.24, N-2-isopropyl-5-methyl-cyclohexyl-1-(2,4-dichlorophenyl)-6-methyl-1H-benzofuro[3,2-c]pyrazole-3-carboxamide] yielded a Ki (CB1 receptors) of 38.2 ± 6 nM, a Ki (CB2 receptors; [1]) of 2.3 ± 0.3 nM and a melting point of 70 to 72 °C.

In the case of CC1(C)C2CCC(CNC(=O)c3nn(-c4ccc(Cl)cc4Cl)c4c3CCOc3cc(Cl)ccc3-4)C1C2 (stereo not shown) [Example 3.3, N-myrtanyl-8-chloro-1-(2′,4′-dichlorophenyl)-4,5-dihydrobenzo-1H-6oxa-cyclohepta[1,2-c]pyrazol-3-carboxamide], the Ki (CB1 receptors) is reported as 21.7 ± 3 nM, the Ki (CB2 receptors; [1]) is reported as 325 ± 38 nM and the melting point is reported as 142 to 143 °C.

With Cc1ccc2c(c1)oc1c(C(=O)NC34CC5CC(CC(C5)C3)C4)nn(-c3ccc(Cl)cc3Cl)c12 [Example 3.28, N-adamantan-1yl-1-(2,4-dichlorophenyl)-6-methyl-1H-benzofuro[3,2-c]pyrazole-3-carboxamide] the Ki (CB1 receptors) was 363 ± 92 nM, the Ki (CB2 receptors) was 28 ± 6.6 nM and the melting point was 210 to 212 °C.

In the case of Cc1ccc2c(c1)oc1c(C(=O)N[C@@H]3C[C@H]4C[C@@H]([C@@H]3C)C4(C)C)nn(-c3ccc(Cl)cc3Cl)c12 [Example 3.25, N-2,6,6-trimethyl-bicyclo[3.1.1]hept-3-yl-1-(2,4-dichlorophenyl)-6-methyl-1H-benzofuro[3,2-c]pyrazole-3-carboxamide], the Ki (CB1 receptors) is reported as 2400 ± 629 nM, the Ki (CB2 receptors) is reported as 3.7 ± 0.3 nM and the melting point is reported as 85 to 87 °C.

Work on Cc1ccc2c(c1)oc1c(C(=O)NN3CCCCC3)nn(-c3ccc(Cl)cc3Cl)c12 [Example 3.20, N-piperidinyl-1-(2,4-dichlorophenyl)-6-methyl-1H-benzofuro[3,2-c]pyrazole-3-carboxamide] yielded a Ki (CB1 receptors) of 1790 ± 330 nM, a Ki (CB2 receptors) of 12.9 ± 1.1 nM and a melting point of 155 to 157 °C.
